≈ marks a conversion by molar mass, not a printed value.
System: Staphylococcus aureus
Assay: Antibacterial activity against Staphylococcus aureus Rosenbach after 14 hrs
Type: functional

MIC	Structure (SMILES)
2 µg/mL (≈ 4.23 µM)	CN(C)c1cc(N)c(O)c2c1C[C@H]1C[C@H]3[C@H](N(C)C)C(O)=C(C(N)=O)C(=O)[C@@]3(O)C(O)=C1C2=O
2 µg/mL (≈ 3.78 µM)	CN(C)c1cc(NC(=O)CN)c(O)c2c1C[C@H]1C[C@H]3[C@H](N(C)C)C(O)=C(C(N)=O)C(=O)[C@@]3(O)C(O)=C1C2=O
2 µg/mL (≈ 3.67 µM)	CN(C)c1cc(NC(=O)CNN)c(O)c2c1C[C@H]1C[C@H]3[C@H](N(C)C)C(O)=C(C(N)=O)C(=O)[C@@]3(O)C(O)=C1C2=O

Structure (SMILES)	MIC
CN(C)c1ccc(O)c2c1C[C@H]1C[C@H]3[C@H](N(C)C)C(O)=C(C(N)=O)C(=O)[C@@]3(O)C(O)=C1C2=O [MINOCYCLINE]	0.125 µg/mL (≈ 0.273 µM)

From ChEMBL document CHEMBL1137628, “Bactericidal activity of extended 9-glycyl-amido-minocyclines” (2007)
